In US20110244589A1, “IN-VIVO PLATELET FUNCTION TEST BY ONLINE BLEEDING VOLUME MEASUREMENT” (priority 2009, published 2011):

Assays:
[1] = system: platelet function; assay: bleeding volume test (in-vivo, blotter paper blotch area); design: species or system patient; conditions: after taking an aspirin, versus before
Description: Bleeding volume is the volume of blood lost during a bleeding time test. Bleeding time is a total length of time between the moment a standardized tiny superficial incision is made in the skin of a patient and the moment the bleeding stops. […] The blotter paper 14 absorbs the blood 16 oozing out of the incision 18 until the patient 10 stops bleeding. One or more blotter papers 14 may be necessary to absorb all of the blood 16.
The in-vivo bleeding volume test results of the patient 10 is indicative of a patient's excessive bleeding tendencies, platelet function and platelet number.
Referring now to FIG. 1, a medical professional conducts the following procedure on the patient 10 being treated. The conditions for consistent blood flow and clotting may be set up. For example, the incision area may be wiped with alcohol which is allowed to completely dry. The patient may either sit in a chair with the forearm in a comfortable stable position or reclining with the forearm at heart level. A blood pressure (e.g., sphygmomanometer) cuff 26 may be placed on an upper arm 22 of the patient 10. By way of example and not limitation, the blood pressure cuff 26 may be inflated to about 40 mm Hg to regulate a constant venous blood pressure in the forearm 24 of the patient 10. […] A round disc blotter paper 14 typically used for determining bleeding time may be placed at the edge of the incision 18. […]

[2] = system: platelet function; assay: bleeding time test (in-vivo); design: species or system patient; conditions: after taking an aspirin, versus before
Description: The bleeding time of a patient, which is the length of time blood continues to flow after the skin of a patient has been punctured or cut, has been used to identify patients having abnormal bleeding tendencies or platelet dysfunction or low number of platelets. The bleeding time test is an in-vivo test which involves making a standardized incision on the skin then applying a round disc of standardized blotter paper to the enlarging blood droplet adjacent to the incision for precisely thirty (30) seconds, then rotating the blotter paper and applying a fresh edge of the disc to the bleeding incision, and repeating this process until bleeding has stopped. The sequential blotches of blood on the blotter paper should not intersect. The total number of dried blotches of blood on the blotter paper divided by the number two (2) gives the duration of bleeding in minutes. […] The conditions for consistent blood flow and clotting may be set up. For example, the incision area may be wiped with alcohol which is allowed to completely dry. […] To calculate the total bleeding time, the number of blotches 28 may be counted and divided by two to arrive at the bleeding time to the nearest thirty (30) second interval. Alternatively, the bleeding time may be calculated with a stopwatch.

[3] = system: platelet function; conditions: background statement on the bleeding time test; cited from earlier work

## CC(=O)Oc1ccccc1C(=O)O [aspirin]
[1]
  increases bleeding volume: 400%
[2]
  increase the bleeding time: 72%
[3]
  difference in mean bleeding time of persons who take aspirin and those that take no medication: ≤ 2 standard deviations
